According to patent US11407724B2, “Process for the production of cannabinoids” (Bessor Pharma, LLC, priority 2018, dated 2022):

System: TRPV 1 channels
Assay: Calcium assay (Fluo-4) in HEK-TRPV1 cells, dose response comparison
Assay type: cell-based
Conditions: Fluo-4 loaded, 1 mM external calcium chloride, 0-20 seconds baseline, compound added at 20 seconds, synthesized vs Sigma-sourced CBD (FIGS. 1A-1D)
Protocol: Molecular Pharmacology, 2016, volume 90, pages 300-308) HEK 293 cells with TRPV1 channels have been used as model systems (P. Geppetti and M. Trevisani, Activation and sensitisation of the vanilloid receptor: role in gastrointestinal inflammation and function, British Journal of Pharmacology, 2004, volume 141, pages 1313-1320);
HEK TRexTRPV1 cultured in DMEM, 10% Fetal Bovine Serum, 2 mM L-glutamine, 10 microgramg/ml Blasticidin (Calbiochem, San Diego Calif.), […] Zeocin (InvivoGen, San Diego Calif.), followed by inducing indicated transgene expression using 1 microgram/ml Tetracycline for 16-24 hrs. Comparisons made to untransfected HEK cells or HEKTRexTRPV1 with or without induction.
Cells washed and incubated with 0.2 micromolar Fluo-4 [54] for 30 minutes at 37° C. in a standard modified Ringer's solution of the following composition (in mM): NaCl 145, KCl 2.8, CsCl 10, CaCl2 10, MgCl2 2, glucose 10, Hepes-NaOH 10, pH 7.4, 330 mOsm. Cells transferred to 96-well plates at 50,000 cells/well and stimulated as indicated. Calcium signals acquired using a Flexstation 3 (Molecular Devices, Sunnydale, USA). Data are analyzed according to the methods in I. Díaz-Franulic, J. Caceres-Molina, R. V. Sepulveda, F. Gonzalez-Nilo, R. Latorre, Structure-Driven Pharmacology of Transient Receptor Potential Channel Vanilloid 1, Molecular Pharmacology, 2016, volume 90, pages 300-8. […]

C=C(C)[C@@H]1CCC(C)=C[C@H]1c1c(O)cc(CCCCC)cc1O [cannabidiol (11, CBD), Cannabidiol]
“biological finger print” and dose response on TRPV 1 channels: the same “biological finger print” and dose response
